Experimental data reported in paper PMC9465178, “Cinnamaldehyde derivatives act as antimicrobial agents against Acinetobacter baumannii through the inhibition of cell division” (Frontiers in Microbiology, 2022).
Values after ≈ are worked out from the molar mass of the structure shown.

Columns and labels:
[1] = test system: A. baumannii ATCC 19606; assay: Cell division phenotype by light microscopy; assay type: cell-based, Acinetobacter baumannii; settings: LXC compounds at 2 × MIC
Description: Morphological changes of bacteria when exposed to the compounds were assessed microscopically using the assay as previously described ([Chai et al., 2020]). Eppendorf® tubes were set up with A. baumannii ATCC 19606 as described for the time-kill assays. At time 0, 1, 3, 6, and 18 h, an aliquot of the bacterial suspension (1 μL) was transferred onto a glass slide and viewed under a light microscope (Olympus CX33®) at 100 × magnification. Representative images were captured using JENOPTIK GRYPHAX® imaging.
A 1 μL aliquot was taken out at varying timepoints (0, 1, 3, 6, and 18 h) and imaged by light microscopy. The images for 6 h are depicted here. […] The white arrow indicates “grooving” site, an indication of where separation of daughter cells should take place. Scale bar is 50 μm.
Four of the compounds (LXC 31, 33, 35 and 41) were tested at 1× and 2× their minimum inhibitory concentration (MIC) whereas LXC 36 and 43 were tested at 2× and 4× MIC. The phenotypic changes in A. baumannii morphology were analysed under a light microscope (100× magnification) at time 0, 1, 3, 6 and 18 h. Scale bar is 50 µm.

[2] = test system: E. coli FtsZ; settings: FtsZ from E. coli, 120 μg/mL; ref Li et al., 2015a; cited from earlier work
[3] = test system: AbFtsZ; assay: AbFtsZ polymerization, 90° light scattering; assay type: biochemical, Acinetobacter baumannii; settings: test compound at 128 μg/mL, AbFtsZ 0.15 mg/mL, 1 mM GTP, 8°C
Description: Effects on inhibition of the cinnamaldehyde derivatives on AbFtsZ polymerization were analyzed using the assay as previously described ([Chai et al., 2020]) with the following modifications. A reaction mix was prepared in a cold Eppendorf® tube where AbFtsZ (0.15 mg/mL) was mixed with the test compound at the desired concentration and a polymerization buffer diluted from a double strength buffer to give a final concentration of 25 mM PIPES pH 6.8, 50 mM KCl and 10 mM MgCl2. The reaction mix was prepared such that the DMSO concentration remained constant at 2% (v/v). The mix was then added into a quartz cuvette (PerkinElmer®, United Kingdom), and placed in a PerkinElmer® LS 55 fluorometer under the fixed condition of excitation/emission at 350/350 nm, slit width < 2 nm, a 1 s read interval. The temperature was calibrated to remain constant at 8°C. The fluorescence was followed for 300 sec to allow equilibration, then polymerization was initiated with the addition of 1 mM GTP. A separate negative control was prepared where 1 mM GDP was added instead of the GTP. The reaction was followed for 600 s.
(A–F) AbFtsZ (0.15 mg/mL) was pre-incubated in polymerization buffer (25 mM PIPES pH 6.8, 50 mM KCl and 10 mM MgCl2) together with the test compound at 128 μg/mL for 300 s. Polymerization was then initiated with the addition of 1 mM GTP. The fluorescence was measured as a function of time at excitation and emission wavelengths of A350 and A350 nm, respectively, and a slit width of <2 nm. The blue line in each panel indicates the addition of 2.5% (v/v) DMSO, the pink line indicates the test compound tested at 128 μg/mL and the gray line represents the addition of 1 mM GDP (as negative control) instead of GTP.

[4] = test system: Pseudomonas aeruginosa ATCC 27853; design: method as in Li et al., 2015a,b; settings: ref Li et al., 2015a,b; cited from earlier work
[5] = test system: E. coli ATCC 25922; design: method as in Li et al., 2015a,b; settings: ref Li et al., 2015a,b; cited from earlier work
[6] = test system: human red blood cells; assay: Hemolysis assay; assay type: cell-based; settings: fresh human RBCs, 1 h, 37°C, concentrations up to 4 × MIC (concentration in the value words)
Description: The hemolysis assay was performed using fresh human red blood cells (RBCs). […] These were performed in quadruplicate. Thereafter, 192 μL RBCs were added into all wells and the plates were incubated at 37°C under constant shaking (100 rpm) for 1 h. RBCs were precipitated by centrifugation of the plates (1,000× g for 3 min). An aliquot (100 μL) of each supernatant was transferred into a new 96-microwell plate and the A450 nm was determined using a PerkinElmer Enspire® plate reader. The fraction of intact RBC for each sample was determined as fraction of the intact RBCs for the sample without the addition of compounds (set at 100%) and plotted as a function of compound concentration.
A 1% (v/v) Triton X-100 was used to indicate complete RBC lysis (^‡). […] The assays were performed in quadruplicates. The plates were incubated at 37°C while constantly shaking at 100 rpm for 1 h. Intact RBCs were removed by centrifugation and the presence of hemolytic products in the supernatant were determined by measuring the absorbance at A450 nm. The results are presented in mean ± SEM. Statistical analysis was performed using one-way ANOVA and the asterisks (*) represent statistical significance (*p < 0.05; **p < 0.005; ***p < 0.0005; ****p < 0.0001).

Row | SMILES | Time until elongated phenotype is seen [1] [h] | Effect on FtsZ polymerization, light scattering [2] | Inhibition of AbFtsZ polymerization [3] | MIC [4] [µg/mL] | MIC [5] [µg/mL] | Hemolytic activity [6]
1 | Cc1nc2ccccc2n1C(=O)/C=C/c1ccc(F)cc1 [Compound 2] | ≤ 3 | impaired polymerization |  |  |  | 
2 | Cc1nc2ccccc2n1C(=O)/C=C/c1ccc(Cl)cc1Cl [Compound 6] | ≤ 3 | impaired polymerization | strongest activity observed with compound 5, followed by compounds 1 and 6 |  |  | 
3 | Cc1nc2ccccc2n1C(=O)/C=C/c1ccccc1 [Compound 1] | > 3 |  | strongest activity observed with compound 5, followed by compounds 1 and 6 | 128 (≈ 488 µM) | 128 (≈ 488 µM) | 
4 | Cc1nc2ccccc2n1C(=O)/C=C/c1ccc(Br)cc1 [Compound 4] | ≤ 3 |  |  |  |  | devoid of hemolytic activity even at the highest concentration tested (4 × MIC, Figure 9D)
5 | COc1ccc(/C=C/C(=O)n2c(C)nc3ccccc32)cc1OC [Compound 5] |  |  | strongest activity |  |  | only non-lytic at a low concentration (0.25 × MIC, Figure 9E)
6 | Cc1nc2ccccc2n1C(=O)/C=C/c1ccc(Cl)cc1 [Compound 3] | ≤ 3 | impaired polymerization |  |  |  | 
